In the supplement of paper PMC10307832:

How the values were obtained:
Experiment in all cases: relative viability (nuclei count vs DMSO), 5 days (fraction); higher = more cells survive
Nelarabine + Vorinostat = compound: COc1nc(N)nc2c1ncn2[C@@H]1O[C@H](CO)[C@@H](O)[C@@H]1O [Nelarabine] + O=C(CCCCCCC(=O)Nc1ccccc1)NO [Vorinostat] (partner 1 µM)
Method in brief: (§1)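 Relative viability is defined as nuclei in treated wells over nuclei in vehicle wells. Duplicate plates were run and medians reported. Lung cancer cell lines in 1536-well plates were dosed by pin tool one day after seeding, with one drug or with a fixed anchor-drug dose plus five library-drug doses (not always all listed) in √10 steps, and nuclei were counted after 5 days.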

Adavosertib + Crizotinib = compound: C=CCn1c(=O)c2cnc(Nc3ccc(N4CCN(C)CC4)cc3)nc2n1-c1cccc(C(C)(C)O)n1 [Adavosertib] + C[C@@H](Oc1cc(-c2cnn(C3CCNCC3)c2)cnc1N)c1c(Cl)ccc(F)c1Cl [Crizotinib] (partner 1 µM)
Method in brief: as §1

Nelarabine + Bortezomib = compound: COc1nc(N)nc2c1ncn2[C@@H]1O[C@H](CO)[C@@H](O)[C@@H]1O [Nelarabine] + CC(C)C[C@H](NC(=O)[C@H](Cc1ccccc1)NC(=O)c1cnccn1)B(O)O [Bortezomib] (partner 0.002 µM)
Method in brief: as §1

[1] = compound: C=CCn1c(=O)c2cnc(Nc3ccc(N4CCN(C)CC4)cc3)nc2n1-c1cccc(C(C)(C)O)n1 [Adavosertib] + CC(=O)c1c(C)c2cnc(Nc3ccc(N4CCNCC4)cn3)nc2n(C2CCCC2)c1=O [Palbociclib] (partner 0.5 µM)
Method in brief: as §1

Cell Line | relative viability (Nelarabine + Vorinostat; first compound 0.01 µM) | relative viability (Nelarabine + Vorinostat; first compound 0.03162 µM) | relative viability (Nelarabine + Vorinostat; first compound 0.1 µM) | relative viability (Nelarabine + Vorinostat; first compound 0.3162 µM) | relative viability (Nelarabine + Vorinostat; first compound 1 µM) | relative viability (Adavosertib + Crizotinib; first compound 0.01 µM) | relative viability (Adavosertib + Crizotinib; first compound 0.03162 µM) | relative viability (Adavosertib + Crizotinib; first compound 0.1 µM) | relative viability (Adavosertib + Crizotinib; first compound 0.3162 µM) | relative viability (Nelarabine + Bortezomib; first compound 0.01 µM) | relative viability (Nelarabine + Bortezomib; first compound 0.03162 µM) | relative viability (Nelarabine + Bortezomib; first compound 0.1 µM) | relative viability (Nelarabine + Bortezomib; first compound 0.3162 µM) | relative viability (Nelarabine + Bortezomib; first compound 1 µM) | relative viability ([1]; first compound 0.01 µM) | relative viability ([1]; first compound 0.03162 µM) | relative viability ([1]; first compound 0.1 µM) | relative viability ([1]; first compound 0.3162 µM)
CAL-12T | 0.987 | 0.78 | 0.764 | 0.938 | 0.997 | 0.935 | 0.592 | 0.776 | 0.509 | 1.11 | 0.973 | 1.31 | 0.958 | 0.959 | 0.403 | 0.492 | 0.425 | 0.262
NCI-H2009 | 0.789 | 0.676 | 0.663 | 0.8 | 0.661 | 0.995 | 1.05 | 1.03 | 1.04 | 1.24 | 1.09 | 0.952 | 1.03 | 1.06 | 0.195 | 0.2 | 0.258 | 0.215
SK-LU-1 | 0.789 | 0.585 | 0.924 | 0.94 | 0.845 | 0.837 | 0.844 | 0.553 | 0.325 | 1.56 | 1.02 | 1.61 | 1.1 | 1.13 | 0.405 | 0.467 | 0.398 | 0.342
NCI-H3122 | 1.38 | 0.833 |  | 1.17 | 1.02 | 0.287 | 0.241 | 0.294 | 0.271 | 1.03 | 0.872 |  | 1.03 | 1.02 | 0.216 | 0.198 | 0.184 | 0.213
NCI-H1437 | 0.992 | 0.946 | 0.831 | 0.878 | 0.808 | 1 | 0.973 | 1.04 | 0.922 | 0.678 | 0.523 | 0.553 | 0.479 | 0.444 | 0.333 | 0.313 | 0.305 | 0.35
NCI-H650 | 0.415 | 0.376 | 0.4 | 0.479 | 0.499 | 0.706 | 0.648 | 0.692 | 0.609 | 1.13 | 0.703 | 0.758 | 0.977 | 0.897 | 0.344 | 0.372 | 0.336 | 0.371
HCC-78 | 0.601 | 0.475 |  | 0.427 | 0.556 | 0.34 | 0.351 | 0.339 | 0.347 | 0.771 | 0.497 |  | 0.584 | 0.539 | 0.531 | 0.525 | 0.508 | 0.428
ABC-1 | 1.24 | 1.51 | 1.22 | 1.07 | 0.929 | 1.16 | 1.19 | 1.05 | 1.31 | 0.28 | 0.319 | 0.251 | 0.245 | 0.297 | 0.736 | 0.745 | 0.777 | 0.896
A-427 | 0.856 | 0.93 | 0.895 | 0.854 | 0.844 | 0.972 | 0.931 | 1.02 | 0.962 | 1.01 | 0.846 | 1.01 | 0.895 | 0.961 | 0.517 | 0.567 | 0.538 | 0.52
HCC-15 | 1.1 | 0.905 | 0.829 | 0.887 | 0.973 | 0.826 | 0.818 | 0.96 | 0.967 | 1.33 | 0.917 | 1.18 | 1.11 | 1.14 | 0.744 | 0.706 | 0.739 | 0.899
EKVX | 0.81 | 0.667 | 0.585 | 0.817 | 0.788 | 1.13 | 0.952 | 0.776 | 1.06 | 1.35 | 0.853 | 1.05 | 1.25 | 1.14 | 0.365 | 0.354 | 0.344 | 0.5
BEN | 0.662 | 0.575 | 0.592 | 0.609 | 0.618 | 0.985 | 0.998 | 0.825 | 0.873 | 0.915 | 0.652 | 0.887 | 1.19 | 0.969 | 0.452 | 0.434 | 0.473 | 0.501
201T | 1.2 | 1.04 | 0.999 | 1.03 | 0.979 | 1.05 | 0.992 | 1.08 | 1.07 | 1.11 | 1.02 | 1.12 | 1.15 | 1.08 | 0.336 | 0.356 | 0.364 | 0.367
SW 1573 | 1.05 | 0.81 | 0.806 | 0.628 | 0.776 | 0.797 | 0.879 | 1.09 | 0.845 | 1.63 | 1.12 | 1.18 | 1.25 | 1.1 | 0.364 | 0.42 | 0.401 | 0.392
HCC-827 | 0.595 | 0.748 | 0.639 | 0.721 | 0.64 | 0.895 | 0.943 | 1.03 | 0.929 | 1.09 | 0.956 | 1.02 | 0.914 | 0.783 | 0.467 | 0.452 | 0.533 | 0.532
NCI-H2228 | 0.634 | 0.569 | 0.387 | 0.495 | 0.792 | 0.391 | 0.458 | 0.615 | 0.3 | 1.45 | 1.52 |  | 1.35 | 1.03 |  | 0.746 | 0.62 | 0.545
NCI-H2085 | 0.788 | 0.814 | 0.77 | 0.819 | 0.816 | 0.748 | 0.866 | 0.946 | 0.85 | 1.07 | 0.976 | 1.02 | 1.05 | 0.889 | 0.479 | 0.458 | 0.519 | 0.577
NCI-H727 | 1.24 | 1.17 | 1.13 | 1.27 | 1.19 | 0.804 | 0.994 | 0.737 | 0.871 | 1.09 | 0.768 | 0.869 | 0.95 | 0.795 | 0.584 | 0.699 | 0.637 | 0.658
